Results taken from US20170188606A1, “COMPOUNDS, COMPOSITIONS, AND METHODS FOR REDUCING OR E[…] TASTE” (Chromocell Corporation, priority 2014, published 2017).

Legend:
[1] = tested on: bitter taste in grape-flavored cough syrup (Robitussin Cough and Cold CF); test: Cough syrup 2-AFC analysis with 50 ppb and 100 ppb (Example 4); format: in vivo, Humans; settings: for Cmpd. Chosen Overall: chosen as less bitter, n=11
Method: (§1) Compound 1 was screened for a reduction of bitter taste due to a bitter tastant in children's grape flavored cough syrup (Robitussin Cough and Cold CF™, Lot #: R10494, Exp. 07/15). Compound 1 was solubilized in […] (PG), dosed into the cough syrup, and placed in 2.5 mL amounts in sample vials to afford 50 ppb or 100 ppb Compound 1 in the samples. Control samples contained an equal amount of PG to samples containing Compound 1. Testers (n=11) were asked to use a plastic transfer pipette for tasting, rinsing with water between samples and choosing the less bitter sample via the two alternative forced choice (2-AFC) method.

sweetness perception = test: Inherent sweetness assessment using 2-AFC method vs 1.5% sucrose; format: in vivo, human; settings: for % correct: % needed 67%; for x (choosing Sample 1 as sweeter): n 36
Method: Sucrose solutions were prepared by adding sucrose to water to achieve the desired concentrations. Compounds were first prepared as 250-fold concentrated stocks in a 50% ethanol (200 proof), 50% water solution. These concentrated stocks were then diluted in water to achieve a final ethanol concentration of 0.2%. The control solutions were also normalized to 0.2% ethanol.
Compound 1 was evaluated in an aqueous solution for sweetness perception in a 2-AFC test. This test was a double-blinded, randomized study where taste panelists evaluate a pair of solutions one at a time for sweetness. Panelists were instructed not to eat or drink (except water) for at least one hour before the test. During the test, panelists were instructed to sip each sample, swirl it around their mouth and then expectorate. After tasting each sample in the pair, panelists were instructed to record the sample that is “sweeter” in taste. Panelists cleansed their palates by rinsing with water, eating a cracker and waiting for an interval of about 5 minutes. Each pair was tasted twice. All samples were tasted at ambient temperatures. Compound 1 (at various concentrations) was evaluated in comparison to the control, 1.5% sucrose. The flavor and extract manufacturers association (FEMA) characterizes any compound that has a sweetness intensity greater than that of 1.5% in a water base as inherently sweet.
Control Sample (Sample 1): 1.5% sucrose in water
Test Samples (Sample 2): • 10 μg/mL (10 ppm) Compound 1 in 0.2% ethanol in water • 2 μg/mL (2 ppm) Compound 1 in 0.2% ethanol in water • 0.5 μg/mL (500 ppb) Compound 1 in 0.2% ethanol in water
Eighteen subjects completed two replicates of a 2-AFC test for sweetness. Thirty three responses indicated the Control Sample was sweeter for each of the test samples evaluated. Three responses indicated the Test Sample was sweeter for each of the test samples evaluated. Using a beta binomial distribution, p=0.000 (two-sided alternative).

[2] = tested on: bitter taste of rebaudioside A; test: Descriptive analysis (DA) panel taste test, aqueous rebaudioside A
[3] = tested on: bitter taste of Orange VitaminWater (Stevia Leaf Extract, rebaudioside A); test: Descriptive analysis (DA) panel taste test, Orange VitaminWater
[4] = tested on: bitterness of 500 ppm RebA; test: Discrimination testing with sureness (Latin square 2-AFC) and R-index analysis, aqueous RebA; format: in vivo, Humans; settings: 5 ppm in 500 ppm RebA, Discrim. Sureness, N 34, vs control
Description: The discrimination testing with sureness extends the simple yes/no task of discrimination test in a signal detection procedure to include a sureness rating scale. The discrimination test principle is based on two alternative forced choice (2-AFC) manner, in this methodology, panelists are presented with multiple samples, in which one sample is a control, and the other sampled are test variants. A blind control is included in the test variants along with a known control. Panelists are asked to first discriminate between the known control and a variant by identifying which the sample is less bitter. Second, panelists rate their sureness of their response (e.g., sure, unsure, or guess).
To minimize bias and prevent panelist expectation of sample order, a Latin square randomization design is utilized. The samples within a set will be randomized and the sets are randomized via Latin square. The number of presentations is equally distributed. Each of the test samples is evaluated against a negative control sample to calculate R-index score and associated p-value. […] R-index is utilized to indicate the degree of difference between the test and the control sample. […]
The blocker candidates were evaluated in a “sip and spit” format using this methodology and analysis and were the results of at least 30 observations (e.g., 15 panelists and 2 replications or 10 panelists 3 replications).

[5] = tested on: bitter taste receptor (T2R); settings: Compound 1 3.2 mM in the absence of rebaudioside A; vs vehicle control
Method: Both the rebaudioside A and Compound 1 solutions were prepared in a standard HEPES buffer solution. Rebaudioside A was evaluated at a concentration of 825 μM and Compound 1 was evaluated at 3.2 mM (in the presence and absence of 825 μM rebaudioside A) and compared to vehicle control (HEPES buffer solution). Cells were incubated with a calcium responsive dye for one hour at 37 C and then exposed to rebaudioside A, Compound 1 (in the presence and absence of 825 μM rebaudioside A) and vehicle control. Change in fluorescence prior to compound addition and after compound addition was monitored for five minutes using a Hamamatsu Functional Drug Screening System (FDSS) 6000. The difference in fluorescence response over vehicle control was calculated using maximal cellular responses for each compound.

[6] = tested on: bitter taste in grape-flavored cough syrup (Robitussin Cough and Cold CF); test: Cough syrup 2-AFC analysis (Example 3); format: in vivo, Humans; settings: 0.1 ppm in cough syrup; testers n=7
Method: as §1, with “3” for “2.5”, “vials.” for “vials to afford 50 ppb or 100 ppb Compound 1 in the samples.”, “(n=7)” for “(n=11)”

[7] = Compound 1 @ 0.5 μg/mL in water vs 1.5% sucrose
[8] = Compound 1 @ 2 μg/mL in water vs 1.5% sucrose
[9] = Compound 1 @ 10 μg/mL in water vs 1.5% sucrose
[10] = Panel A, 500 ppm RebA + Compound 1 @7.5 ppm in water, 15 cm scale
[11] = Panel B, fully solubilized, 500 ppm Reb-A + Compound 1 @0.3 ppm, aqueous, 0.2% ethanol
[12] = Panel A, Orange Vitamin Water Zero + Compound 1 @5 ppm, 15 cm scale
[13] = Panel B, fully solubilized, Orange VitaminWater (head: 500 ppm Reb-A) + Compound1 @0.25 ppm, 0.2% ethanol

SMILES: CN[C@@H](Cc1c[nH]c2ccccc12)C(=O)O [Compound 1, N-methyl-L-tryptophan]
- Chosen if 1st in Pair ([1]; 50 ppb in cough syrup): 5/6
- Chosen if 2nd in Pair ([1]; 50 ppb in cough syrup): 2/5
- Chosen in 1st Pair ([1]; 50 ppb in cough syrup): 5/6
- Chosen in 2nd Pair ([1]; 50 ppb in cough syrup): 2/5
- Cmpd. Chosen Overall ([1]; 50 ppb in cough syrup): 7/11
- Chosen if 1st in Pair ([1]; 100 ppb in cough syrup): 4/5
- Chosen if 2nd in Pair ([1]; 100 ppb in cough syrup): 3/6
- Chosen in 1st Pair ([1]; 100 ppb in cough syrup): 3/5
- Chosen in 2nd Pair ([1]; 100 ppb in cough syrup): 4/6
- Cmpd. Chosen Overall ([1]; 100 ppb in cough syrup): 7/11
- d′ (sweetness perception; [7]): 1.956
- % correct (sweetness perception; [7]): 92%
- x (choosing Sample 1 as sweeter) (sweetness perception; [7]): 33
- d′ (sweetness perception; [8]): 1.956
- % correct (sweetness perception; [8]): 92%
- x (choosing Sample 1 as sweeter) (sweetness perception; [8]): 33
- d′ (sweetness perception; [9]): 1.956
- % correct (sweetness perception; [9]): 92%
- x (choosing Sample 1 as sweeter) (sweetness perception; [9]): 33
- inherent sweetness (sweetness perception; concentrations up to 10 μg/mL (10 ppm), 0.2% ethanol in water, vs 1.5% sucrose): do not elicit inherent sweetness
- Bitter [2, 10]: 5.32
- Bitter Aft [2, 10]: 3.18
- HPB [2, 10]: 7.70
- Licorice [2, 10]: 6.58
- Sweet Aft [2, 10]: 4.71
- Sweet Linger [2, 10]: 2.55
- Bitter [2, 11]: 3.4
- Bitter Aft [2, 11]: 1.6
- HPB [2, 11]: 5
- Bit Aft [3, 12]: 2.94
- Bitter [3, 12]: 4.97
- HPB [3, 12]: 6.83
- Licorice [3, 12]: 2.74
- Swt Aft [3, 12]: 3.89
- Swt Linger [3, 12]: 1.99
- Bitter [3, 13]: 3.9
- HPB [3, 13]: 5.4
- R-index [4]: 63.3%
- fluorescent response from Compound 1 on its own [5]: not significantly different from vehicle control
- Compound Chosen as Less Bitter [6]: 5
- Control Chosen as Less Bitter [6]: 1
- No Choice Made [6]: 1
